In US20240018133A1, “MODULATORS OF THE INTEGRATED STRESS PATHWAY” (Calico Life Sciences LLC, priority 2019, published 2024) one finds EC50 data, which are given here for 20 compounds.

The structures appear in SMILES notation.

The first experiment concerns ATF4 luciferase reporter (human full-length ATF4 5'-UTR fused to firefly luciferase) in HEK293T cells. Briefly: ATF4-Luc assay (in vitro model of VWMD): HEK293T cells carrying ATF4 luciferase reporter, tunicamycin-treated. The experiment is classed as cell-based. The conditions noted are these: 1 μg/mL tunicamycin, 7 hours, One Glo luminescence. The method in brief: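 Reporter cells were stably generated by retroviral transduction and puromycin selection, then seeded at 30,000 cells/well. Next day, cells received 1 μg/mL tunicamycin with 200 nM test compound for 7 h, and luciferase luminescence was read with a one-step reagent. Values reported as EC50.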
(In general: A reporter such as luciferase makes a cellular process visible.)
In the case of `O=C(COc1ccc(Cl)c(F)c1)NC12CC(NC(=O)C3CNc4cc(Cl)ccc4O3)(C1)C2` (single isomer, unassigned) [Compound 103], the EC50 (in general, the concentration giving half of the maximal effect) is < 10 nM.

The same experiment, now with this note: Homo sapiens, HEK-293T, 1 μg/mL tunicamycin, 7 hours, One Glo luminescence.
`O=C(COc1ccc(Cl)c(F)c1)NC12CC(NC(=O)c3cc(=O)c4cc(Cl)c(F)cc4o3)(C1)C2` [Compound 231, 6-chloro-N-{3-[2-(4-chloro-3-fluorophenoxy)acetamido]bicyclo[1.1.1]pentan-1-yl}-7-fluoro-4-oxo-4H-1-benzopyran-2-carboxamide]: the EC50 is < 10 nM.
With `O=C(COc1ccc(F)c(F)c1)NC12CC(NC(=O)[C@H]3CC(=O)c4cc(F)c(F)cc4O3)(C1)C2` [Compound 271, (2R)—N-{3-[2-(3,4-difluorophenoxy)acetamido]bicyclo[1.1.1]pentan-1-yl}-6,7-difluoro-4-oxo-3,4-dihydro-2H-1-benzopyran-2-carboxamide], the EC50 fell in the range of 10 to 50 nM.
Turning to `CNC1CC(C(=O)NC23CCC(NC(=O)COc4ccc(Cl)c(F)c4)(CC2)[C@@H](O)C3)Oc2ccc(Cl)cc21` (stereo partly drawn) [Compound 303, 6-chloro-N-{(3S)-4-[2-(4-chloro-3-fluorophenoxy)acetamido]-3-hydroxybicyclo[2.2.2]octan-1-yl}-4-(methylamino)-3,4-dihydro-2H-1-benzopyran-2-carboxamide], the EC50 was < 10 nM.
`CS(=O)(=O)N[C@H]1C[C@H](C(=O)NC23CC(NC(=O)COc4ccc(Cl)c(F)c4)(C2)C3)Oc2ccc(Cl)cc21` [Compound 244, (2R,4S)-6-chloro-N-{3-[2-(4-chloro-3-fluorophenoxy)acetamido]bicyclo[1.1.1]pentan-1-yl}-4-[(methanesulfonyl)amino]-3,4-dihydro-2H-1-benzopyran-2-carboxamide]: the EC50 lay in the range of 10 to 50 nM.
Take `O=C(COc1ccc(Cl)c(F)c1)NC12CC(NC(=O)[C@H]3C[C@@H](NCCO)c4cc(Cl)ccc4O3)(C1)C2` [Compound 308, (2R,4R)-6-chloro-N-{3-[2-(4-chloro-3-fluorophenoxy)acetamido]bicyclo[1.1.1]pentan-1-yl}-4-[(2-hydroxyethyl)amino]-3,4-dihydro-2H-1-benzopyran-2-carboxamide]: the EC50 was in the range of 10 to 50 nM.
On to `O=C(NC12CCC(NC(=O)C3CC(=O)c4cc(Cl)ccc4O3)(CC1)[C@@H](O)C2)c1cc(C(F)F)no1` (stereo partly drawn) [Compound 214, N-{(3S)-4-[(6-chloro-4-oxo-3,4-dihydro-2H-1-benzopyran-2-carbonyl)amino]-3-hydroxybicyclo[2.2.2]octan-1-yl}-3-(difluoromethyl)-1,2-oxazole-5-carboxamide], for which the EC50 lay within 250 to 500 nM.
In the case of `C[C@]1(C(=O)NC23CC(NC(=O)COc4ccc(Cl)c(F)c4)(C2)C3)Cc2cc(Cl)ccc2O1` [Compound 258, (2R)-5-chloro-N-{3-[2-(4-chloro-3-fluorophenoxy)acetamido]bicyclo[1.1.1]pentan-1-yl}-2-methyl-2,3-dihydro-1-benzofuran-2-carboxamide], the EC50 was > 2000 nM.
Regarding `O=C(COc1ccc(Cl)c(F)c1)NC12CC(NC(=O)C3=Cc4ccc(Cl)cc4OC3)(C1)C2` [Compound 317, 7-chloro-N-{3-[2-(4-chloro-3-fluorophenoxy)acetamido]bicyclo[1.1.1]pentan-1-yl}-2H-1-benzopyran-3-carboxamide], the EC50 is 10 to 50 nM.
Still for that read-out and setting: the value for `O=C(COc1ccc(Cl)c(F)c1)NC12CCC(NC(=O)[C@H]3C[C@@H](O)c4cc(Cl)ccc4O3)(CC1)CC2` [Compound 229, (2R,4R)-6-chloro-N-{4-[2-(4-chloro-3-fluorophenoxy)acetamido]bicyclo[2.2.2]octan-1-yl}-4-hydroxy-3,4-dihydro-2H-1-benzopyran-2-carboxamide] was < 10 nM; that for `O=C(COc1ccc(Cl)c(F)c1)NC12CCC(NC(=O)C3CC(=O)c4cc(Cl)ccc4O3)(CC1)C[C@@H]2O` (stereo partly drawn) [Compound 199C, 6-chloro-N-{(3S)-4-[2-(4-chloro-3-fluorophenoxy)acetamido]-3-hydroxybicyclo[2.2.2]octan-1-yl}-4-oxo-3,4-dihydro-2H-1-benzopyran-2-carboxamide] was < 10 nM.
On to `O=C(NC12CCC(NC(=O)[C@H]3C[C@@H](O)c4cc(Cl)ccc4O3)(CC1)CC2)c1cnc(C(F)F)cn1` (racemic) [Compound 302, N-(4-{[rac-(2R,4R)-6-chloro-4-hydroxy-3,4-dihydro-2H-1-benzopyran-2-carbonyl]amino}bicyclo[2.2.2]octan-1-yl)-5-(difluoromethyl)pyrazine-2-carboxamide], for which the EC50 lay within 50 to 250 nM.
Still for that read-out and setting: the value for `CC(=O)NC1CC(C(=O)NC23CC(NC(=O)COc4ccc(Cl)c(F)c4)(C2)C3)Oc2ccc(Cl)cc21` (centres unmarked) [Compound 220, 4-acetamido-6-chloro-N-{3-[2-(4-chloro-3-fluorophenoxy)acetamido]bicyclo[1.1.1]pentan-1-yl}-3,4-dihydro-2H-1-benzopyran-2-carboxamide] was 10 to 50 nM.
As for `CC(C)(O)CN1C[C@@H](C(=O)NC23CC(NC(=O)COc4ccc(Cl)c(F)c4)(C2)C3)Oc2ccc(Cl)cc21` [Compound 348, (2S)-6-chloro-N-{3-[2-(4-chloro-3-fluorophenoxy)acetamido]bicyclo[1.1.1]pentan-1-yl}-4-(2-hydroxy-2-methylpropyl)-3,4-dihydro-2H-1,4-benzoxazine-2-carboxamide], the EC50 lay in the range of 50 to 250 nM.
`O=C(COc1ccc(F)c(F)c1)NC12CC(NC(=O)[C@@H]3CC(=O)c4cc(Cl)ccc4O3)(C1)C2` [Compound 276, (2S)-6-chloro-N-{3-[2-(3,4-difluorophenoxy)acetamido]bicyclo[1.1.1]pentan-1-yl}-4-oxo-3,4-dihydro-2H-1-benzopyran-2-carboxamide]: the EC50 lay in the range of 10 to 50 nM.
Turning to `O=C(COc1ccc(Cl)c(F)c1)NC12CCC(NC(=O)[C@H]3C[C@@H](O)c4cc(Cl)ccc4O3)(CC1)[C@@H](O)C2` (single isomer, unassigned) [Compound 238], the half-maximal effective concentration (EC50) is < 10 nM.
On the same count and under the same terms, to `O=C(NC12CC(NC(=O)[C@H]3C[C@@H](O)c4cc(Cl)ccc4O3)(C1)C2)c1ccc(OC(F)(F)F)nc1` [Compound 377, N-(3-{[(2R,4R)-6-chloro-4-hydroxy-3,4-dihydro-2H-1-benzopyran-2-carbonyl]amino}bicyclo[1.1.1]pentan-1-yl)-6-(trifluoromethoxy)pyridine-3-carboxamide] belongs 50 to 250 nM; to `O=C(NC12CC(NC(=O)[C@H]3C[C@@H](O)c4cc(Cl)ccc4O3)(C1)C2)c1ccc(OC(F)(F)F)cn1` [Compound 376, N-(3-{[(2R,4R)-6-chloro-4-hydroxy-3,4-dihydro-2H-1-benzopyran-2-carbonyl]amino}bicyclo[1.1.1]pentan-1-yl)-5-(trifluoromethoxy)pyridine-2-carboxamide], 10 to 50 nM; to `CS(=O)(=O)NC1CC(C(=O)NC23CC(NC(=O)COc4ccc(Cl)c(F)c4)(C2)C3)Oc2ccc(Cl)cc21` (centres unmarked) [Compound 219, 6-chloro-N-{3-[2-(4-chloro-3-fluorophenoxy)acetamido]bicyclo[1.1.1]pentan-1-yl}-4-[(methanesulfonyl)amino]-3,4-dihydro-2H-1-benzopyran-2-carboxamide], < 10 nM.
Still for that read-out and setting: to `O=C(COc1ccc(Cl)c(F)c1)NC12CC(NC(=O)C3CC(=O)c4cc(Cl)ccc4O3)(C1)C2` (centres unmarked) [Compound 186, 6-chloro-N-{3-[2-(4-chloro-3-fluorophenoxy)acetamido]bicyclo[1.1.1]pentan-1-yl}-4-oxo-3,4-dihydro-2H-1-benzopyran-2-carboxamide] belongs < 10 nM.
